In patent US6455570B1, “Polypyrrolinone based inhibitors of matrix metalloproteases” (The Trustees of the University of Pennsylvania, priority 2000, dated 2002):

Tests used:
Format in all cases: biochemical
gelatinase (MMP-2) = target: T1, gelatinase (MMP-2) (Homo sapiens, UniProt P08253); assay: metalloprotease activity assay by a published procedure (J. Duan, WO/0059285), gelatinase; details: read-out: Ki, inhibitory activity against gelatinase (MMP-2)
T1 sequence (P08253 110-660): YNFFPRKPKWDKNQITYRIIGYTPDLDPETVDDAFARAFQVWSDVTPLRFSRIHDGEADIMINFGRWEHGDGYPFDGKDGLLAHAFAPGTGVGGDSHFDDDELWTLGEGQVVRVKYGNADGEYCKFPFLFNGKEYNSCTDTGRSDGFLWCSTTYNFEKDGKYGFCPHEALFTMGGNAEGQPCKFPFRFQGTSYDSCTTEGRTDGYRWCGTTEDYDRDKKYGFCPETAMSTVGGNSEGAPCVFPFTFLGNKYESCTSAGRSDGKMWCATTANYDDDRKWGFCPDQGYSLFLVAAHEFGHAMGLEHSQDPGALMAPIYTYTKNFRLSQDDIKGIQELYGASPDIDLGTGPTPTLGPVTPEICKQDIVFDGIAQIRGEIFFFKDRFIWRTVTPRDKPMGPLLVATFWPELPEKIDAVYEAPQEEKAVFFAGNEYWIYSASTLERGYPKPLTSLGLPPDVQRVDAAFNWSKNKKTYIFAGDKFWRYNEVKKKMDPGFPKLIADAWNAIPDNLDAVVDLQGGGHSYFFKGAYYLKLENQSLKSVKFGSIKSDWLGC
Experimental: (§1) Compounds of the present invention were assayed for metalloprotease activity by a published procedure (see, for example, J. Duan, WO/0059285). […] (Whittaker, M. et al. Chem. Rev. 1999 99:2735; Borkakoti, N. et al. Struct. Biol. 1994 1:106)

matrilysin (MMP-7) = target: T2, matrilysin (MMP-7) (Homo sapiens, UniProt P09237); assay: metalloprotease activity assay by a published procedure (J. Duan, WO/0059285), matrilysin; details: read-out: Ki, inhibitory activity against matrilysin (MMP-7)
T2 sequence (P09237 95-267): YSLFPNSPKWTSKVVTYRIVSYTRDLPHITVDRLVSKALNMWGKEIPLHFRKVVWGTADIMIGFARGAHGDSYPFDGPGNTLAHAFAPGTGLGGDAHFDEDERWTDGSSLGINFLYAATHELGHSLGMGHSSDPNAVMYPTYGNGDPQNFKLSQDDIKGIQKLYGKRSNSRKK
Experimental: as §1

[1] = target: membrane type 2 matrix metalloprotease (MMP-15) (Homo sapiens, UniProt P51511); assay: metalloprotease activity assay by a published procedure (J. Duan, WO/0059285), membrane type 2 MMP; details: read-out: Ki, inhibitory activity against membrane type 2 matrix metalloprotease (MMP-15)
Sequence of membrane type 2 matrix metalloprotease (MMP-15) (P51511 132-669, species assumed): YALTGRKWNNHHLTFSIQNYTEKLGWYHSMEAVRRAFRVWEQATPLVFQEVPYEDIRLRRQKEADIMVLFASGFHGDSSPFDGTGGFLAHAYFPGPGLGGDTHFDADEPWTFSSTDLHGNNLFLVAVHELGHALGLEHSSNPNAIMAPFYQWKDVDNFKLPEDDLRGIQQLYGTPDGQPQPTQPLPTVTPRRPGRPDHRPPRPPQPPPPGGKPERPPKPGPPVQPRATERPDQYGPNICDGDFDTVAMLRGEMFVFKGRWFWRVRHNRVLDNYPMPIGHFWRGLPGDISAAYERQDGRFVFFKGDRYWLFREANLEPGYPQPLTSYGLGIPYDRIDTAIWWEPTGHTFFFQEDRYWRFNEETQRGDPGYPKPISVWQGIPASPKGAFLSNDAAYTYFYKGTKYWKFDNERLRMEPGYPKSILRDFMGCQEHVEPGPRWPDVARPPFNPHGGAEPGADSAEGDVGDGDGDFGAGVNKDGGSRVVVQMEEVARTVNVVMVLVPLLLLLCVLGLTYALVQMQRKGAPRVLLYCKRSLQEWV
Experimental: as §1

`CCOC(=O)C(C)C1=CNC(CC(C)C)(C2=CNC(CC(=O)NO)(CC(C)C)C2=O)C1=O` (single isomer, unassigned; (-)) [(−)-1a, Bispyrrolinone Hydroxamic Acid] showed a Ki (gelatinase (MMP-2)) of 2.9 µM, a Ki (matrilysin (MMP-7)) of 6.4 µM and a Ki [1] of 6.8 µM.
